Measured values: patent US12522575B2, “2-diarylmethyl-4-aminotetrahydropyran derivatives and related compounds as anticancer, antiinflammatory, antifibrotic and neuroprotective agents” (Atux Iskay LLC, priority 2021, dated 2026)

Tests used:
Format in all cases: cell-based
[1] = system: D425 medulloblastoma cells; assay: D425 cell viability / proliferation (CellTiter-Glo); conditions: Medulloblastoma cell; 48 hours treatment, CellTiter-Glo; read-out: IC50 for D425 cell growth
Protocol: D425 medulloblastoma cells were purchased from SigmaAldrich. D425 meduloblastoma cells were cultured in improved Dulbecco's modified Eagle's medium (DMEM) Richter's modification supplemented with 20% fetal bovine serum and 1% Penicillin-streptomycin. Incubation was performed at 37° C. and 5% CO2.
D425 cells were seeded at 3000-3500 cells/90 ul growth medium per well on 96-well tissue culture plates. Cells were incubated overnight to allow them to recover. Next day cells were treated with tested compounds and incubated for 48 hours.
Cell Proliferation assays in triplicate were performed at each concentration. Compounds test range was 1-30 μM (0, 5, 10, 15, 20, 25, and 30). The compounds were dissolved in DMSO. A series of dilutions were made in 1% DMSO in growth medium so that the final concentration of DMSO is 0.1% in all of treatments.
After treatment, cells were allowed to equilibrate at room temperature for one hour. Cell proliferation was measured by Luminescence quantification using Promega CellTiter-Glo Luminescent Cell Viability Assay. To perform the assay, 90 ul of Celltiter-Glo substrate was added to each well, plates were shake for 2 minutes and allowed to equilibrate for 10 minutes at room temperature. Luminescence intensity was measured using the Spectramax i3x plate reader.
The Luminescence intensity data were analyzed using the computer software Graphpad Prism. In the absence of the compound, the luminescence intensity (Lt) in each data set was defined as 100% cell viability. The percent cell in the presence of each compound was calculated according to the following equation: % Cell=L/Lt, were L=the luminescence intensity in the presence of the compound.
The values of % cell versus a series of compound concentrations (0, 5, 10, 15, 20, 25, and 30 μM) were then plotted using Nonlinear regression analysis of Sigmoidal dose-response curve. IC50 value was determined by the concentration causing a half-maximal percent activity.

[2] = system: phosphatase activity in ApoE transfected A172 glioblastoma cells; assay: Cellular in vitro phosphatase activation assay (Malachite Green) in ApoE transfected A172 cells; conditions: 24 hours
Protocol: Cellular in vitro phosphatase activation assay was performed using the method of Theendakara et al, Molecular and Cellular Neuroscience, 83 (2017), pages 83-91 which is described below:
A172 glioblastoma cells were cultured in Dulbecco's modified Eagle's medium (DMEM) supplemented with 10% fetal bovine serum and 1% Penicillin-streptomycin. Incubation was performed at 37° C. and 5% CO2.
A172 cells were seeded at 5×10^5 cells/2.5 ml growth medium (without antibiotics) per well on 6-well tissue culture plates. Cells were incubated overnight to allow them to recover and reattach. […]
After 24 hrs, cells were washed twice with imidazole buffer and lysed using NP-40 Lysis buffer. […] The amount of phosphate release in the assay was determined by measuring absorbance at 620 nm using the Spectramax i3x plate reader.
The absorbance intensity data were analyzed using the computer software Graphpad Prism. The phosphate concentration for each sample was determined from the standard curve using phosphate standard concentrations. In order to compare samples, the first set (column A) were there was no transfection performed and no compound added, was designated a baseline; the absorbance measurement in this column was set as 100% phosphatase activity.

[3] = system: PP2A; assay: PP2A responses in lung fibroblasts; conditions: 1 μM, 24 hours
Protocol: Each dot represents cells from a different subject. Student t-tests or 2-way ANOVA were performed and a p-value […] was denoted as * when comparing to the vehicle treated groups.
Each dot represents cells from a different subject. Student t-tests were performed and a p-value […] was denoted as * when comparing non-smoker (NS) to IPF vehicle groups or ** when comparing vehicle IPF to compound IPF groups. Left plot: cell source-healthy non-smoker; Middle plot: cell source—IPF; Right: cell source—IPF.
IPF fibroblasts were exposed to v or 1 micromolar of the ATUX compounds media for 24 hours and increase in PP2A activity is shown in right hand group. PP2A activity in vehicle treated fibroblasts from healthy nonsmokers is shown for comparison in the left hand group.

O=S(=O)(NC1CCOC(C2c3ccc(F)cc3CCc3cc(F)ccc32)C1)c1ccc(OC(F)(F)F)cc1 (stereo not shown) [Example 6, N-(2-(2,8-difluoro-10,11-dihydro-5H-dibenzo[a,d][7]annulen-5-yl)tetrahydro-2H-pyran-4-yl)-4-(trifluoromethoxy)benzenesulfonamide]
IC50 [1]: 5.8 µM | % increase from ApoE transfected cell at 5 μM test compound concentration [2]: 6.8% | PP2A responses in lung fibroblasts from healthy subjects ([3]; vs vehicle (FIG. 4)): reactivation of PP2A responses | PP2A responses in lung fibroblasts from idiopathic pulmonary fibrosis (IPF) ([3]; vs vehicle IPF (FIG. 5)): reactivation of PP2A responses
